Values of other authors in patent EP0547334A1, “Combination of calcium antagonists with cholinesterase inhibitors for the treatment of senile demention” (priority 1991, dated 1993).

Tested on: Ratten
Settings: Metrifonat 1 mg/kg alone, oral, rats; literature statement (Schmidt, de Jonge 1991)

In the case of COP(=O)(OC)C(O)C(Cl)(Cl)Cl (stereo not shown) [Metrifonat], the Wirkung is listed as “keine Wirkung”.
